Values quoted from earlier work as cited in US20130296280A1, “EUTECTIC MIXTURE COMPRISING CELECOXIB AND POLOXAMER” (priority 2012, published 2013).

Details: oral celecoxib; Drug Metab Dispos. 2000:28:308-314

## Cc1ccc(-c2cc(C(F)(F)F)nn2-c2ccc(S(N)(=O)=O)cc2)cc1 [celecoxib, 4-[5-(4-methylphenyl)-3-(trifluoromethyl)-1H-pyrazol-1-yl]benzenesulfonamide]
  bioavailability: 22-40%
